Reference: patent US20240294595A1, “GLYCOPEPTIDES AND USES THEREOF” (Arizona Board of Regents on Behalf of the University of …, priority 2013, published 2024)
“Also recorded” adds a separate entry of the source.

How the values were obtained:
[1] = biological target: T1, VPAC1 (Homo sapiens, UniProt P32241); experiment: VPAC1 agonist data (Table 2); type: cell-based
T1 sequence (P32241 31-457): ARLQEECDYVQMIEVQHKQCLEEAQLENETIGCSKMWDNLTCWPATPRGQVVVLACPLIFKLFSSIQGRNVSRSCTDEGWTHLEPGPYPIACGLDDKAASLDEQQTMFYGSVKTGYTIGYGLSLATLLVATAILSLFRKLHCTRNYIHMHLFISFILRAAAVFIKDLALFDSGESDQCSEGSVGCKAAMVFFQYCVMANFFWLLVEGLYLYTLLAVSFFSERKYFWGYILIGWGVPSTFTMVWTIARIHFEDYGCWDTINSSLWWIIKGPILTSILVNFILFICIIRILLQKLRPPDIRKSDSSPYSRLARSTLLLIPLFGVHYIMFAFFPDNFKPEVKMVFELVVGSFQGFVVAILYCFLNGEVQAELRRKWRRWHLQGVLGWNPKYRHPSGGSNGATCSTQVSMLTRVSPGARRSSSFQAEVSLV

[2] = biological target: T2, PAC1 (Homo sapiens, UniProt P41586); experiment: PAC1 agonist data (Table 2); type: cell-based; set-up: host or cells: CHO (clonal line PAC1-CHO)
T2 sequence (P41586 21-468): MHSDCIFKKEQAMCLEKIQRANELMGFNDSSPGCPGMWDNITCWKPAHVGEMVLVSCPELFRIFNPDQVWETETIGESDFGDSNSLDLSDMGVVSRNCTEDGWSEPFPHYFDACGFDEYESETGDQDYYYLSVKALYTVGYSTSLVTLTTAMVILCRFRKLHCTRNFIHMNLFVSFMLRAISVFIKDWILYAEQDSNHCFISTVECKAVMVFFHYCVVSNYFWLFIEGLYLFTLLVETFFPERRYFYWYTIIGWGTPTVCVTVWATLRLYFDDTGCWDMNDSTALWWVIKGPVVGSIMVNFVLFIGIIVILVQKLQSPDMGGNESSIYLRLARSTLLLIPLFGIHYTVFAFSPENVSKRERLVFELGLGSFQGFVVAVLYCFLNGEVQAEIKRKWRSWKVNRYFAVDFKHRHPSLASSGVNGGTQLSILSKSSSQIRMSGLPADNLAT
Description: A custom DNA clone of the human PAC1 gene with 3 hemagglutinin (HA) tags inserted 3′ to the signal peptide sequence (to avoid proteolytic loss) was obtained from Genecopoeia (Rockville, MD). The construct was electroporated into Chinese Hamster Ovary (CHO) cells, and selected for with 500 μg/mL of G418. The resulting population was screened for high expressing clones, and one such clone selected for further analysis. […] This cell line was used for all molecular pharmacology experiments. The cells were maintained in DMEM/F12 with 10% heat-inactivated FBS, 1× penicillin/streptomycin, and 500 μg/mL G418, at 37° C. and 5% CO2.
All molecular pharmacology experiments were carried out using a FLIPR Tetra from Molecular Devices (Sunnyvale, CA), set to image calcium flux using the manufacturer's recommended settings and protocols. The day before an experiment, the PAC1-CHO cells were split into 384 well black walled, clear bottom microplates, 10,000 cells per well. The cells were recovered overnight in growth medium (as above). The next day, the growth medium was replaced with Calcium 6 dye (Molecular Devices) using the manufacturer recommended buffer with 2.5 mM probenecid. The cells were incubated for 2 hours in the culture incubator, and removed during the last 15 minutes to allow equilibration to room temperature. Compound as indicated below was added to the cells using a 384 tip block, with real time monitoring before, during, and 15 minutes after compound addition. The resulting calcium flux was recorded, and the maximum-minimum response over the entire observation time calculated and reported as the mean±SEM (4 wells per point).
For agonist mode experiments, compound was added in an 11 point concentration curve, with a vehicle control (buffer). […] The response was analyzed using a 3 variable non-linear curve fit, and the EC50 (nM) and EMax (%) calculated and reported (Prism, GraphPad, La Jolla, CA).

[3] = biological target: T3, VPAC2 (Homo sapiens, UniProt P41587); experiment: VPAC2 agonist data (Table 2); type: cell-based
T3 sequence (P41587 24-438): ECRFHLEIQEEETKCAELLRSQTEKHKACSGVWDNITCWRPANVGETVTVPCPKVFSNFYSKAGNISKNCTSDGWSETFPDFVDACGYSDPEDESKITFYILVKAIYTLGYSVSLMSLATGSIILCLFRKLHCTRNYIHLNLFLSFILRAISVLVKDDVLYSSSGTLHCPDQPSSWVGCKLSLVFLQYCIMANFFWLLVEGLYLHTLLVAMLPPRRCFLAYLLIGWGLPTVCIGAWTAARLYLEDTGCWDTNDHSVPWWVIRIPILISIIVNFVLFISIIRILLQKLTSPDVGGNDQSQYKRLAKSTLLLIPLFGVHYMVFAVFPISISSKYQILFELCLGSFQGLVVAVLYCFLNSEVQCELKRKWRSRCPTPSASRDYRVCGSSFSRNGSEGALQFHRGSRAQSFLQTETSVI

[4] = test system: traumatic brain injury (TBI); experiment: mouse model of diffuse TBI (midline fluid percussion injury); type: in vivo
Description: Lead compound 2LS80Mel was evaluated for its neuroprotective potential in vivo utilizing a mouse model of traumatic brain injury (TBI). Mice were pretreated with either a single dose of 2LS80Mel (10 mg/kg i.p.) or sterile saline 30 min prior to being subjected to a midline fluid percussion injury. The mice were then evaluated for sleep-wake behavior (FIGS. 8A-C), motor skills and cognition, (FIGS. 8D-F), the presence of inflammatory markers, (FIGS. 8G-L), and microglial morphology (FIGS. 8M-O).

[5] = stability in mouse serum at 37° C. (FI-MSn); type: in vitro ADME; settings: for degradation in mouse serum: mouse serum at 37° C.
Source text: Chemical stability of the glycopeptides in vivo plays an important role in the deliverability of the drugs to the site(s) of action within the brain. It is also important to know what the chemical or metabolic instabilities are in order to inform the drug design process. […] Data were fitted using a single exponential decay model (R^2>0.71, in all cases).
The overall process was as follows: Flow-injection tandem mass spectrometry (FI-MS^n) was used to observe the degradation of the peptides and glycopeptides with a Thermo LCQ with electrospray ionization (ESI). The technique involved injection of a sample bolus of material in mouse serum via a six port valve with fluid flow delivered via a syringe pump, and subsequent electrospray ionization (ESI) followed by mass spectral analysis. Samples were diluted to a concentration of ˜5 μM of each PACAP analogue, and were incubated at 37° C. for times varying from 1 to 60 minutes. After samples had been incubated for the prescribed amount of time they were prepared for mass spectrometry analysis by withdrawing 10 microliters of solution and spiking with 1 microliter of a 10 μM solution of peptide internal standard (angiotensin II) in 50% acetic acid and subjecting them to a standard C18 zip tip desalting. These solutions, once eluted from the zip tip were diluted to 100 μL in 50:50 acetonitrile/water with 0.1% formic acid. Tandem mass spectrometry analysis (MS^3) was conducted to yield specific, quantitative signals proportional to the amount of PACAP analogue at each time point. This technique was also used with microdiasylate samples from a mouse after i.p. administration of PACAP1-27-S-G.

[6] = 10 mg/kg i.p. 30 min prior to TBI

With CC[C@H](C)[C@H](NC(=O)CNC(=O)[C@H](CC(=O)O)NC(=O)[C@H](CO)NC(=O)[C@@H](N)Cc1c[nH]cn1)C(=O)N[C@@H](Cc1ccccc1)C(=O)N[C@H](C(=O)N[C@@H](CC(=O)O)C(=O)N[C@@H](CO)C(=O)N[C@@H](Cc1ccc(O)cc1)C(=O)N[C@@H](CO)C(=O)N[C@@H](CCCNC(=N)N)C(=O)N[C@@H](Cc1ccc(O)cc1)C(=O)N[C@@H](CCCNC(=N)N)C(=O)N[C@@H](CCCCN)C(=O)N[C@@H](CCC(N)=O)C(=O)N[C@@H](CC(C)C)C(=O)N[C@@H](C)C(=O)N[C@H](C(=O)N[C@@H](CCCCN)C(=O)N[C@@H](CCCCN)C(=O)N[C@@H](Cc1ccc(O)cc1)C(=O)N[C@@H](CC(C)C)C(=O)N[C@@H](C)C(=O)N[C@@H](C)C(=O)N[C@H](C(=O)N[C@@H](CC(C)C)C(=O)N[C@@H](CO[C@@H]1O[C@H](CO[C@H]2O[C@H](CO)[C@H](O)[C@H](O)[C@H]2O)[C@@H](O)[C@H](O)[C@H]1O)C(N)=O)C(C)C)C(C)C)[C@@H](C)O [Compound 2LS80Mel] as the compound, how does the EC50 [1] read?
Its EC50 is 0.55 nM.

And the Emax [1]?
Its Emax is 102%.

What about the EC50 [2] of the same compound?
The EC50 was 0.57 nM.

What about the Emax [2] of the same compound?
Its Emax is 99%.

What about the EC50 [3] of the same compound?
The EC50 was 9.4 nM.

And the Emax [3]?
The Emax was 86%.

And the “cumulative minutes slept in the first 6 h post-injury” value [4, 6]?
Its value is “slept comparable minutes to uninjured sham animals”.

What about the “sleep in the first dark period” value [4, 6] of the same compound?
Its value is “prevented this injury-induced increase in sleep”.

What about the “CD11b+Ly6Chigh and CD11b+CD115+Ly6Chigh monocyte populations” value ([4]; 10 mg/kg i.p. prior to TBI) of the same compound?
The value was “not seen; also recorded: prevented increases in peripheral monocyte populations”.

What about the “sensorimotor deficits, modified NSS” value ([4]; 10 mg/kg i.p. prior to TBI) of the same compound?
The value was “prevented”.

What about the “Rotarod latency to fall” value ([4]; 10 mg/kg i.p. prior to TBI, 2, 5, 7 DPI) of the same compound?
The value was “comparable to uninjured shams at all time points post-injury”.

And the “levels of select inflammatory cytokines” value ([4]; 2LS80Mel-treated vs saline-treated)?
Its value is “no significant differences”.

And the microglial morphology ([4]; 2LS80Mel-treated vs saline-treated, 15 DPI)?
Its microglial morphology is “no significant differences”.

What about the “behavioral, neurological, and motor skill deficits” value ([4]; overall, FIG. 8) of the same compound?
The value was “attenuated behavioral, neurological, and motor skill deficits”.

With CC[C@H](C)[C@H](NC(=O)CNC(=O)[C@H](CC(=O)O)NC(=O)[C@H](CO)NC(=O)[C@@H](N)Cc1cnc[nH]1)C(=O)N[C@@H](Cc1ccccc1)C(=O)N[C@H](C(=O)N[C@@H](CC(=O)O)C(=O)N[C@@H](CO)C(=O)N[C@@H](Cc1ccc(O)cc1)C(=O)N[C@@H](CO)C(=O)N[C@@H](CCCNC(=N)N)C(=O)N[C@@H](Cc1ccc(O)cc1)C(=O)N[C@@H](CCCNC(=N)N)C(=O)N[C@@H](CCCCN)C(=O)N[C@@H](CCC(N)=O)C(=O)N[C@@H](CCSC)C(=O)N[C@@H](C)C(=O)N[C@H](C(=O)N[C@@H](CCCCN)C(=O)N[C@@H](CCCCN)C(=O)N[C@@H](Cc1ccc(O)cc1)C(=O)N[C@@H](CC(C)C)C(=O)N[C@@H](C)C(=O)N[C@@H](C)C(=O)N[C@H](C(=O)N[C@@H](CC(C)C)C(N)=O)C(C)C)C(C)C)[C@@H](C)O [PACAP1-27, PACAP-27, reference compound] as the compound, how does the “degradation in mouse serum” value [5] read?
Its value is “degraded over 30 min”.

For CC[C@H](C)[C@H](NC(=O)CNC(=O)[C@H](CC(=O)O)NC(=O)[C@H](CO)NC(=O)[C@@H](N)Cc1c[nH]cn1)C(=O)N[C@@H](Cc1ccccc1)C(=O)N[C@H](C(=O)N[C@@H](CC(=O)O)C(=O)N[C@@H](CO)C(=O)N[C@@H](Cc1ccc(O)cc1)C(=O)N[C@@H](CO)C(=O)N[C@@H](CCCNC(=N)N)C(=O)N[C@@H](Cc1ccc(O)cc1)C(=O)N[C@@H](CCCNC(=N)N)C(=O)N[C@@H](CCCCN)C(=O)N[C@@H](CCC(N)=O)C(=O)N[C@@H](CCSC)C(=O)N[C@@H](C)C(=O)N[C@H](C(=O)N[C@@H](CCCCN)C(=O)N[C@@H](CCCCN)C(=O)N[C@@H](Cc1ccc(O)cc1)C(=O)N[C@@H](CC(C)C)C(=O)N[C@@H](C)C(=O)N[C@@H](C)C(=O)N[C@H](C(=O)N[C@@H](CC(C)C)C(=O)N[C@@H](CO[C@@H]1O[C@H](CO)[C@@H](O)[C@H](O)[C@H]1O)C(N)=O)C(C)C)C(C)C)[C@@H](C)O [PACAP1-27-S-G], which “mouse serum t1/2 in vitro” value ([5]; compared to native / non-glycosylated peptide) is on record?
The value was “significant increase”.

What about the “degradation in mouse serum” value [5] of the same compound?
The value was “degraded over 30 min”.
